# From patent publication US8399416B2, “Method of using heparin binding motif for treating asthma” (National Tsing Hua University, priority 2008, dated 2013)
# Positions count from the first letter of the chain named.
# T1: ECP (Homo sapiens, UniProt P12724)
# T1 construct: His6 (C); made in house; host or cells: E. coli BL21-CodonPlus (DE3)
# T1 sequence (P12724 28-160): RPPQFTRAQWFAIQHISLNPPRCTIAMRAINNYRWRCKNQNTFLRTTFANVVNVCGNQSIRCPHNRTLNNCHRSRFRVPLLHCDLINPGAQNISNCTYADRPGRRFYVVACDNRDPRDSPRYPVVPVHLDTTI
# T2: ECP wt (Homo sapiens, UniProt P12724)
# T2 construct: His6 (C); made in house; host or cells: E. coli BL21-CodonPlus (DE3)
# T2 sequence (P12724 28-160): T1 sequence (P12724 28-160)
# T3: ECP mt1 (Homo sapiens, UniProt P12724, K65A/R61A/R63A/W62A)
# T3 construct: recombinant mature ECP was injected into the rat circulation; His6 (C); made in house; host or cells: E. coli BL21-CodonPlus(DE3)
# T3 sequence (P12724 28-160 R61A/W62A/R63A/K65A): T1 sequence (P12724 28-160) with R34A, W35A, R36A, K38A
# B1: ECP wt: Recombinant human eosinophil cationic protein with C-terminal His6 tag, expressed in E. coli (protein, UniProt P12724 28-160, looked up)
# Eosinophil cationic protein: T1 sequence (P12724 28-160)
# modifications: C-terminal His6 tag
# notes: Recombinant human eosinophil cationic protein with C-terminal His6 tag, expressed in E. coli
# Legend:
# ECP = biological target: T1, ECP; assay: FACE analysis of ECP binding to heparin oligosaccharides; details: AMAC-labeled oligosaccharide incubated with ECP, 1% agarose gel
# Procedure: FIG. 2. FACE analysis to evaluate binding of ECP to various sugar-containing substrates. A, AMAC-labeled LMWH was incubated with or without ECP in PBS for 10 min at 25° C., and the binding reaction products were separated on a 1% agarose gel. The numbers above the gel indicate the molar ratio of ECP to LMWH. B, Representative oligosaccharide binding pattern of ECP. AMAC-labeled heparin dp3 (10.8 nmol), dp5 (3.3 nmol), dp7 (1.4 nmol), dp9 (1.1 nmol), LMWH (0.03 nmol) and PI-88 (0.03 nmol) were incubated with or without 10-fold molar excess of ECP, and the binding reaction products separated on a 1% agarose gel. C, Representative oligosaccharide binding pattern of EDN. AMAC-labeled heparin dp3 (10.8 nmol), dp5 (3.3 nmol), dp7 (1.4 nmol), dp9 (1.1 nmol), LMWH (0.03 nmol) and PI-88 (0.03 nmol) were incubated with or without 10-fold molar excess of ECP, and the binding reaction products separated on a 1% agarose gel.
# Thus, the minimal heparin length (or disaccharide unit) required to interact with ECP was investigated by FACE (Fluorescence-assisted carbohydrate electrophoresis).
# Initially, ECP was co-incubated with LMWH at various molar ratios, and the binding products were analyzed by gel electrophoresis. […]
# [1] = system: ECP binding to Beas-2B cells; assay: Competitive inhibition of MBP-ECP binding to Beas-2B cells (cell ELISA); assay type: cell-based, human; details: Fifty micrograms per mililiter oligosaccharide; 5 μg/ml MBP-ECP; 4° C.
# Procedure: FIG. 3. Heparin oligosaccharides inhibit ECP binding to cells. […] The amount of MBP-ECP bound to cells without GAG treatment was set to 100%. C, control (cells were incubated with MBP.) The data shown are the means of triplicate experiments.
# FIG. 7. Synthetic peptides inhibit ECP binding to cells. […] The data shown are the means of triplicate experiments.
# Beas-2B, a human bronchial epithelial cell line, was cultured in RPMI 1640 medium (Sigma-Aldrich) supplemented with heat-inactivated 10% fetal bovine serum (Gibco/Invitrogen, Carlsbad, Calif.).
# The ability of MBP-ECP to bind cells in the presence of serial dilutions of oligosaccharides or peptides was determined as described (Fan, T. C., et al. (2007) Traffic 8, 1778-1795). At the present invention, synthetic heparins (dp3-9) were tested for their ability to interfere with ECP binding to Beas-2B cells. Briefly, confluent monolayers of Beas-2B cells in 96-well plates were pretreated with various concentrations of oligosaccharides or peptides in serum-free RPMI 1640 medium at 4° C. for 30 min before incubation with 5 μg/ml MBP-ECP at 4° C. for 1 h. The cells were then washed with ice-cold PBS and fixed with 2% PFA at room temperature for 15 min prior to blocking with 2% BSA/PBS at room temperature for 90 min. The level of bound MBP-ECP was quantified by ELISA analysis. MBP-ECP was detected using mouse monoclonal anti-MBP and goat anti-mouse horseradish peroxidase (HRP)-conjugated secondary antibody, followed by the enhanced chemiluminescence detection system. The amount of MBP-ECP bound to cells without oligosaccharide or peptide treatment was set to 100%.
# ECP wt = biological target: T2, ECP wt; assay: Intrinsic tryptophan fluorescence titration of ECP wt with heparin oligosaccharides; assay type: binding; details: PBS at 25° C., read-out: Kd, ECP wt
# Procedure: (§1) FIG. 5. ITFE profiles of ECP wt and mt1 with dp5. Tryptophan titration emission spectra of […] ECP wt or mt1 bound with dp5. The emission spectra at 340 nm were recorded. The resulting isotherms were fitted by nonlinear regression least-squares computer fit using the KaleidaGraph Synergy Software. ΔF, the relative fluorescence change, equals F0−Fobs, where F0 and Fobs represent the initial and observed fluorescence values, respectively.
# (§2) The binding affinities of wild-type and mutant ECP for heparin oligosaccharides were subsequently monitored by intrinsic tryptophan fluorescence titration (Lau, E. K., et al. (2004) The Journal of biological chemistry 279, 22294-22305).
# (§3) Binding of ECP to heparin was monitored by changes in intrinsic tryptophan fluorescence emission (IFTE). ECP (200 nM) in PBS at 25° C. was titrated with small aliquots of a high concentration of pentasaccharides with minimal dilution (<2%). Protein fluorescence measurements were recorded 2 min after each addition on a Hitachi 8000 spectrofluorimeter at emission wavelength of 340 nm using an excitation wavelength of 280 nm. ΔF, the relative fluorescence change, equals F0−Fobs, where F0 and Fobs represent the initial and observed fluorescence values, respectively. […]
# ECP mt1 = biological target: T3, ECP mt1; assay: Intrinsic tryptophan fluorescence titration of ECP mt1 with heparin oligosaccharides; assay type: binding; details: PBS at 25° C., read-out: Kd, ECP mt1
# Procedure: as §1
# Amino acid residues R34, W35, R36, and K38 of ECP were simultaneously substituted to alanine using QuickChange site-directed mutagenesis (Stratagene, La Jolla, Calif.) and the resultant mutant was named ECP mt1. […]
# as §2
# as §3, with “ECP (200 nM) in PBS at 25° C. was titrated with small aliquots of a high concentration of pentasaccharides with minimal dilution (<2%).” left out
# C1 peptide = C1 peptide (Homo sapiens, UniProt P12724); assay: Tryptophan fluorescence titration of C1 peptide with heparin oligosaccharides; assay type: binding; details: 1 μM peptide; tryptophan fluorescence at 340 nm; read-out: Kd, C1 peptide
# Procedure: FIG. 10. Titration profiles of synthetic peptides by synthetic heparin oligosaccharides. Titrations were carried out on 1 μM peptides in the presence of heparin oligosaccharides. The Kd of each peptide-oligosaccharide interaction was determined by measuring the fluorescence change of intrinsic tryptophan at 340 nm. Data were fitted to a single-binding-site curve using nonlinear least-squares analysis.
# as §3
# Beas-2B cells = details: biotinylated peptides, 1 h at 4° C.
# Procedure: FIG. 7. Synthetic peptides inhibit ECP binding to cells. A, Beas-2B cells were preincubated with peptides in RPMI 1640 medium for 30 min at 4° C. before incubation with MBP-ECP for an additional 1 h. After treatment, the cells were washed with PBS and fixed with PFA. The level of bound MBP-ECP was assessed by ELISA. The amount of MBP-ECP bound to cells without peptide treatment was set to 100%. The data shown are the means of triplicate experiments. B, Beas2-B cells were incubated with biotinylated peptides for 1 h at 4° C. The amount of peptides bound to cells was assessed as for FIG. 3.
# To investigate whether the RWRCK (SEQ ID NO: 8) motif is directly responsible for heparin binding, cell ELISA was conducted using a synthetic peptide, C1 (SEQ ID NO: 3), along with a positive control peptide derived from HIV-TAT, TAT (SEQ ID NO: 6) (Vives, E., et al. (1997) The Journal of biological chemistry 272, 16010-16017; Ziegler, A. and Seelig, J. (2004) Biophysical journal 86, 254-263). […] Therefore, synthetic peptides with heparin binding activity may compete with ECP for cellular binding. Furthermore, the cell surface binding ability of peptides was tested using cell ELISA assay.
# [2] = AMAC-labeled LMWH, increasing peptide concentrations, room temperature 15 min
# Procedure: FIG. 9. FACE analysis of synthetic peptides. AMAC-labeled LMWH were incubated without or with increasing concentrations of C1, TAT, D1 and R1 peptides at room temperature for 15 min. Samples were loaded and separated by agarose gel electrophoresis as described for FIG. 2.
# Synthetic heparin oligosaccharide (FIG. 1) (Lee, C. J., et al. (2004) J Am Chem Soc 126, 476-477), low molecular weight heparin (LMWH) and PI-88 (kindly provided by Progen Inc., Australia) were labeled with 2-aminoacridone (AMAC) as described (Calabro, A., et al. (2000) Glycobiology 10, 273-281). AMAC-oligosaccharide and proteins were incubated at room temperature for 15 min, loaded onto 1% gels and electrophoresed as described (Holmes, O., et al. (2007) J Mol Biol 367, 395-408).
# In addition, because EDN contains a conventional heparin binding sequence, the corresponding peptide, D1 (SEQ ID NO: 4), was also synthesized and tested.
# [3] = PBS buffer at 25° C.; HMWH 10-20 μM
# Procedure: FIG. 11. Isothermal titration calorimetry of heparin-peptide interaction. The top panels show the differential power time course. Raw data for sequential 6-μl injections of each synthetic peptide in PBS buffer at 25° C. TAT (positive control), B, R1 (negative control), C, C1, and D, D1 into the sample cell containing 1.4 ml HMWH solution (10-20 μM). The total heat released in each injection is proportional to the area under the corresponding peak. […] The solid line represents a non-linear least squares of the reaction heat for the injection.
# [4] = system: Beas-2B cell surface heparan sulfate; details: 4° C. for 30 min
# Procedure: Human Beas-2B cells were incubated with synthetic peptide (A, TAT; B, D1) at 4° C. for 30 min and then washed, fixed and analyzed. Synthetic peptide was identified with mouse anti-biotin monoclonal antibody and FITC-conjugated goat anti-mouse antibody. The distribution of synthetic peptide was examined by confocal microscopy.
# To investigate whether the heparin binding QRRCK motif on EDN, corresponding to the “RWRCK” motif on ECP (SEQ ID NO: 8), was directly responsible for heparan sulfate binding on cell surface, Beas-2B cell-peptide binding was conducted using a synthetic peptide, D1 (SEQ ID NO: 4), and a positive control, TAT (SEQ ID NO: 6) purchased from Genemed Synthesis (South San Francisco, Calif.).
# Beas-2B cell line = details: data taken from reference (Fan et al. 2007), read-out: IC50 for cytotoxic ECP; cited from earlier work
molecule,measurement,setting,value
CO[C@H]1O[C@H](COS(=O)(=O)O)[C@@H](O[C@@H]2O[C@@H](C(=O)O)[C@@H](O[C@H]3O[C@H](COS(=O)(=O)O)[C@@H](O[C@@H]4O[C@@H](C(=O)O)[C@@H](O[C@H]5O[C@H](COS(=O)(=O)O)[C@@H](O)[C@H](O)[C@H]5NS(=O)(=O)O)[C@H](O)[C@H]4OS(=O)(=O)O)[C@H](O)[C@H]3NS(=O)(=O)O)[C@H](O)[C@H]2OS(=O)(=O)O)[C@H](O)[C@H]1NS(=O)(=O)O [dp5],binding to ECP (FACE),ECP,shortest heparin fragment that retained the ability to bind ECP
same,inhibition of ECP binding to cells,[1],50%
same,Kd,ECP wt,140 nM
same,Kd,ECP mt1,568 nM
same,Kd,C1 peptide,275 nM
NYQRRCKNQNK-biotin [D1],cell surface binding ability of peptides,Beas-2B cells,bound to the cell surface
same,interaction with LMWH (FACE),[2],bound heparin as tightly as C1
same,heat release on binding to HMWH (ITC),[3],exothermal reaction modes were clearly observed
same,peptide binding to cell surface (confocal microscopy),[4],bound to Beas-2B cell surface heparan sulfate
B1,IC50,Beas-2B cell line,16000 nM
